Data reported in patent publication EP0639971B1, “THERAPEUTIC COMBINATIONS” (priority 1992, dated 1993).

Legend:
Assay type in all cases: cell-based
HIV = experiment: In vitro passage experiments: acquisition of resistance to oxathiolane nucleosides
[1] = tested on: zidovudine-resistant HIV strain (HIVRTMC); experiment: Antiviral sensitivity (IC50) of zidovudine-resistant HIV strain; conditions: Human immunodeficiency virus 1; HIVRTMC before introduction of mutation
[2] = tested on: zidovudine-resistant HIV strain (HIVRTMC) with M184 to V mutation; experiment: Antiviral sensitivity (IC50) of zidovudine-resistant HIV strain with M184 to V mutation introduced; conditions: Human immunodeficiency virus 1
[3] = tested on: HIV-1 population containing four mutations in the HIV-RT which confer zidovudine resistance; experiment: Passage of zidovudine-resistant HIV-1 in cell culture with increasing concentrations of Chloro-TIBO; antiviral sensitivity (IC50)
[4] = tested on: zidovudine-resistant virus with Y181 to C, together with M184 to V; experiment: Antiviral sensitivity (IC50) of zidovudine-resistant HIV strain with Y181 to C and M184 to V mutations introduced

Structure (SMILES) | acquisition of resistance by HIV (HIV) | IC50 [1] [nM] | IC50 [2] [nM] | IC50 ([3]; Human immunodeficiency virus 1, after five passages with Chloro-TIBO) [nM] | IC50 ([3]; Human immunodeficiency virus 1, before passage with Chloro-TIBO) [nM] | increase of sensitivity of the virus population to zidovudine ([3]; after five passages with increasing concentrations of Chloro-TIBO) | sensitivity / resistance of the resulting mutant virus strain [4] | IC50 ([4]; Human immunodeficiency virus 1) [nM]
Nc1ccn([C@H]2CS[C@@H](CO)O2)c(=O)n1 [3TC, (-)-2',3'-dideoxy-3'-thiacytidine] | rapid resistance |  |  |  |  |  |  | 
Nc1nc(=O)n([C@@H]2CS[C@H](CO)O2)cc1F [FTC, (-)-2'3'-dideoxy-5-fluoro-3'-thiacytidine] | rapid resistance | 640 | > 500000 |  |  |  |  | 
Cc1cn([C@H]2C[C@H](N=[N+]=[N-])[C@@H](CO)O2)c(=O)[nH]c1=O [zidovudine, 3'-azido-3'-deoxythymidine] |  | 1260 | 170 | < 100 | ~2000 | about twenty fold | completely sensitive | 40
